# Measurements published in the NIST ThermoML archive (doi:10.1016/j.fluid.2018.09.024).
# Numbers after ± are expanded uncertainties.
# Experiment: activity coefficient (dimensionless); of the first substance listed, at infinite dilution; xn = mol fraction of the nth substance listed
# Conditions: 348.15 K; 101.33 kPa; Liquid; Chromatography; x1 = 0
row,Compound,activity coefficient
1,CC(C)O [propan-2-ol] + CCCCCCCCCCCC[N+](C)(C)CCOc1ccccc1.N#C[N-]C#N,0.512 ± 0.038
2,CC(C)O [propan-2-ol] + CCCCCCCCCCCC[N+](C)(C)CCOc1ccccc1.O=S(=O)([N-]S(=O)(=O)C(F)(F)F)C(F)(F)F,1.14 ± 0.07
3,CCCc1ccccc1 [propylbenzene] + CCCCCCCCCCCC[N+](C)(C)CCOc1ccccc1.N#C[N-]C#N,1.83 ± 0.12
4,CCCc1ccccc1 [propylbenzene] + CCCCCCCCCCCC[N+](C)(C)CCOc1ccccc1.O=S(=O)([N-]S(=O)(=O)C(F)(F)F)C(F)(F)F,1.26 ± 0.08
5,c1ccncc1 [pyridine] + CCCCCCCCCCCC[N+](C)(C)CCOc1ccccc1.N#C[N-]C#N,0.622 ± 0.043
6,c1ccncc1 [pyridine] + CCCCCCCCCCCC[N+](C)(C)CCOc1ccccc1.O=S(=O)([N-]S(=O)(=O)C(F)(F)F)C(F)(F)F,0.33 ± 0.032
7,C=Cc1ccccc1 [styrene] + CCCCCCCCCCCC[N+](C)(C)CCOc1ccccc1.N#C[N-]C#N,0.981 ± 0.062
8,C=Cc1ccccc1 [styrene] + CCCCCCCCCCCC[N+](C)(C)CCOc1ccccc1.O=S(=O)([N-]S(=O)(=O)C(F)(F)F)C(F)(F)F,0.75 ± 0.049
9,C1CCOC1 [tetrahydrofuran] + CCCCCCCCCCCC[N+](C)(C)CCOc1ccccc1.N#C[N-]C#N,0.749 ± 0.049
10,C1CCOC1 [tetrahydrofuran] + CCCCCCCCCCCC[N+](C)(C)CCOc1ccccc1.O=S(=O)([N-]S(=O)(=O)C(F)(F)F)C(F)(F)F,0.446 ± 0.036
11,c1ccsc1 [thiophene] + CCCCCCCCCCCC[N+](C)(C)CCOc1ccccc1.N#C[N-]C#N,0.699 ± 0.047
12,c1ccsc1 [thiophene] + CCCCCCCCCCCC[N+](C)(C)CCOc1ccccc1.O=S(=O)([N-]S(=O)(=O)C(F)(F)F)C(F)(F)F,0.62 ± 0.043
13,Cc1ccccc1 [toluene] + CCCCCCCCCCCC[N+](C)(C)CCOc1ccccc1.N#C[N-]C#N,1.15 ± 0.07
14,Cc1ccccc1 [toluene] + CCCCCCCCCCCC[N+](C)(C)CCOc1ccccc1.O=S(=O)([N-]S(=O)(=O)C(F)(F)F)C(F)(F)F,0.81 ± 0.052
15,C=COC(C)=O [vinyl acetate] + CCCCCCCCCCCC[N+](C)(C)CCOc1ccccc1.N#C[N-]C#N,1.31 ± 0.09

# Same assay, conditions: 358.15 K; 101.33 kPa; Liquid; Chromatography; x1 = 0
row,Compound,activity coefficient
1,CC1CCCCC1 [methylcyclohexane] + CCCCCCCCCCCC[N+](C)(C)CCOc1ccccc1.N#C[N-]C#N,3.85 ± 0.26
2,CC1CCCCC1 [methylcyclohexane] + CCCCCCCCCCCC[N+](C)(C)CCOc1ccccc1.O=S(=O)([N-]S(=O)(=O)C(F)(F)F)C(F)(F)F,2.51 ± 0.17
3,CCCCCCCCC [nonane] + CCCCCCCCCCCC[N+](C)(C)CCOc1ccccc1.N#C[N-]C#N,8.08 ± 0.55
4,CCCCCCCCC [nonane] + CCCCCCCCCCCC[N+](C)(C)CCOc1ccccc1.O=S(=O)([N-]S(=O)(=O)C(F)(F)F)C(F)(F)F,5.12 ± 0.35
5,C=CCCCCCC [oct-1-ene] + CCCCCCCCCCCC[N+](C)(C)CCOc1ccccc1.N#C[N-]C#N,5.2 ± 0.35
6,C=CCCCCCC [oct-1-ene] + CCCCCCCCCCCC[N+](C)(C)CCOc1ccccc1.O=S(=O)([N-]S(=O)(=O)C(F)(F)F)C(F)(F)F,3.32 ± 0.23
7,CCCCCCCC [octane] + CCCCCCCCCCCC[N+](C)(C)CCOc1ccccc1.N#C[N-]C#N,6.96 ± 0.47
8,CCCCCCCC [octane] + CCCCCCCCCCCC[N+](C)(C)CCOc1ccccc1.O=S(=O)([N-]S(=O)(=O)C(F)(F)F)C(F)(F)F,4.41 ± 0.3
9,CCCCCO [pentan-1-ol] + CCCCCCCCCCCC[N+](C)(C)CCOc1ccccc1.N#C[N-]C#N,0.517 ± 0.039
10,CCCCCO [pentan-1-ol] + CCCCCCCCCCCC[N+](C)(C)CCOc1ccccc1.O=S(=O)([N-]S(=O)(=O)C(F)(F)F)C(F)(F)F,1.22 ± 0.08
11,CCCC(C)=O [pentan-2-one] + CCCCCCCCCCCC[N+](C)(C)CCOc1ccccc1.N#C[N-]C#N,1 ± 0.06
12,CCCC(C)=O [pentan-2-one] + CCCCCCCCCCCC[N+](C)(C)CCOc1ccccc1.O=S(=O)([N-]S(=O)(=O)C(F)(F)F)C(F)(F)F,0.481 ± 0.037
13,CCC(=O)CC [pentan-3-one] + CCCCCCCCCCCC[N+](C)(C)CCOc1ccccc1.N#C[N-]C#N,1.02 ± 0.06
14,CCC(=O)CC [pentan-3-one] + CCCCCCCCCCCC[N+](C)(C)CCOc1ccccc1.O=S(=O)([N-]S(=O)(=O)C(F)(F)F)C(F)(F)F,0.486 ± 0.037
15,CCCO [propan-1-ol] + CCCCCCCCCCCC[N+](C)(C)CCOc1ccccc1.N#C[N-]C#N,0.454 ± 0.036
16,CCCO [propan-1-ol] + CCCCCCCCCCCC[N+](C)(C)CCOc1ccccc1.O=S(=O)([N-]S(=O)(=O)C(F)(F)F)C(F)(F)F,1.14 ± 0.07

row,Compound,activity coefficient
1,CC(C)O [propan-2-ol] + CCCCCCCCCCCC[N+](C)(C)CCOc1ccccc1.N#C[N-]C#N,0.52 ± 0.039
2,CC(C)O [propan-2-ol] + CCCCCCCCCCCC[N+](C)(C)CCOc1ccccc1.O=S(=O)([N-]S(=O)(=O)C(F)(F)F)C(F)(F)F,1.11 ± 0.07
3,CCCc1ccccc1 [propylbenzene] + CCCCCCCCCCCC[N+](C)(C)CCOc1ccccc1.N#C[N-]C#N,1.89 ± 0.13
4,CCCc1ccccc1 [propylbenzene] + CCCCCCCCCCCC[N+](C)(C)CCOc1ccccc1.O=S(=O)([N-]S(=O)(=O)C(F)(F)F)C(F)(F)F,1.32 ± 0.09
5,c1ccncc1 [pyridine] + CCCCCCCCCCCC[N+](C)(C)CCOc1ccccc1.N#C[N-]C#N,0.639 ± 0.044
6,c1ccncc1 [pyridine] + CCCCCCCCCCCC[N+](C)(C)CCOc1ccccc1.O=S(=O)([N-]S(=O)(=O)C(F)(F)F)C(F)(F)F,0.346 ± 0.032
7,C=Cc1ccccc1 [styrene] + CCCCCCCCCCCC[N+](C)(C)CCOc1ccccc1.N#C[N-]C#N,1.02 ± 0.06
8,C=Cc1ccccc1 [styrene] + CCCCCCCCCCCC[N+](C)(C)CCOc1ccccc1.O=S(=O)([N-]S(=O)(=O)C(F)(F)F)C(F)(F)F,0.788 ± 0.051
9,C1CCOC1 [tetrahydrofuran] + CCCCCCCCCCCC[N+](C)(C)CCOc1ccccc1.N#C[N-]C#N,0.77 ± 0.05
10,C1CCOC1 [tetrahydrofuran] + CCCCCCCCCCCC[N+](C)(C)CCOc1ccccc1.O=S(=O)([N-]S(=O)(=O)C(F)(F)F)C(F)(F)F,0.473 ± 0.037
11,c1ccsc1 [thiophene] + CCCCCCCCCCCC[N+](C)(C)CCOc1ccccc1.N#C[N-]C#N,0.724 ± 0.048
12,c1ccsc1 [thiophene] + CCCCCCCCCCCC[N+](C)(C)CCOc1ccccc1.O=S(=O)([N-]S(=O)(=O)C(F)(F)F)C(F)(F)F,0.649 ± 0.044
13,Cc1ccccc1 [toluene] + CCCCCCCCCCCC[N+](C)(C)CCOc1ccccc1.N#C[N-]C#N,1.19 ± 0.08
14,Cc1ccccc1 [toluene] + CCCCCCCCCCCC[N+](C)(C)CCOc1ccccc1.O=S(=O)([N-]S(=O)(=O)C(F)(F)F)C(F)(F)F,0.851 ± 0.055
15,C=COC(C)=O [vinyl acetate] + CCCCCCCCCCCC[N+](C)(C)CCOc1ccccc1.N#C[N-]C#N,1.35 ± 0.09
